According to patent US9211310B2, “Use of a Chinese medicine composition in preparing medicaments for treating secondary prevention of myocardial infarction” (TASLY PHARMACEUTICAL GROUP CO., LTD, priority 2010, dated 2015):

System: patients after acute myocardial infarction
Assay: TCM symptom score, total and single (chest pain, chest tightness, short breath, fatigue, palpitation, spontaneous perspiration, pale complexion), same clinical trial
Type: in vivo, human
Design: total score of TCM symptom, Mean / total score of TCM symptom, Min / total score of TCM symptom, Max / total score of TCM symptom, Md / change of total score of TCM symptom, Mean / change of total score of TCM symptom, Max / change of total score of TCM symptom, Md: scale not given here
Conditions: PP
Source text: 3508 patients who were in accordance with the diagnostic standards of AMI for 28 days to 2 years and differentiated as Qi deficiency and blood stagnation syndrome by TCM were studied. 0.5 g Chinese medicine composition prepared by the method of EXAMPLE 1 (Coded as QSYQ) was administrated half an hour after meal, 3 times per day.
They included the overall survival time, angina pectoris score, TCM symptom score and life quality score, where angina pectoris score, TCM symptom score and life quality score were evaluated at randomization, in 1st, 3rd, 6th, 9th, 12th month after treatment and 18th month after follow-up.
The analysis method referred to the angina pectoris score.

Q: Which “pale complexion score 3, percent of patients” value (Baseline) does the source give for `CC(=O)Oc1ccccc1C(=O)O` [Control group, aspirine] here?
A: (3.88%)

Q: What about the “short breath score 0, % of patients” value (Baseline) of the same compound?
A: (14.48%)

Q: What about the “short breath score 0, number of patients” value (Baseline) of the same compound?
A: 213

Q: And the “short breath score 3, % of patients” value (Baseline)?
A: (51.12%)

Q: What about the “short breath score 3, number of patients” value (Baseline) of the same compound?
A: 752

Q: What about the “short breath score 6, % of patients” value (Baseline) of the same compound?
A: (32.56%)

Q: And the “short breath score 6, number of patients” value (Baseline)?
A: 479

Q: What about the “short breath score 9, % of patients” value (Baseline) of the same compound?
A: (1.84%)

Q: And the “short breath score 9, number of patients” value (Baseline)?
A: 27

Q: What about the “distribution of total score of TCM symptom: Medium, number of patients” value (Follow-up) of the same compound?
A: 212

Q: What about the “distribution of total score of TCM symptom: Medium, percentage of patients” value (Follow-up) of the same compound?
A: (15.23%)

Q: What about the “distribution of total score of TCM symptom: Mild, number of patients” value (Follow-up) of the same compound?
A: 1177

Q: What about the “distribution of total score of TCM symptom: Mild, percentage of patients” value (Follow-up) of the same compound?
A: (84.55%)

Q: And the “distribution of total score of TCM symptom: Severe, number of patients” value (Follow-up)?
A: 3

Q: What about the “distribution of total score of TCM symptom: Severe, percentage of patients” value (Follow-up) of the same compound?
A: (0.22%)

Q: What about the “fatigue score 0, % of patients” value (Follow-up) of the same compound?
A: (42.80%)

Q: What about the “fatigue score 0, number of patients” value (Follow-up) of the same compound?
A: 597

Q: And the “fatigue score 2, % of patients” value (Follow-up)?
A: (52.97%)

Q: What about the “fatigue score 2, number of patients” value (Follow-up) of the same compound?
A: 739

Q: And the “fatigue score 4, % of patients” value (Follow-up)?
A: (4.01%)

Q: What about the “fatigue score 4, number of patients” value (Follow-up) of the same compound?
A: 56

Q: And the “fatigue score 6, % of patients” value (Follow-up)?
A: (0.22%)

Q: What about the “fatigue score 6, number of patients” value (Follow-up) of the same compound?
A: 3

Q: What about the “pale complexion score 0, number of patients” value (Follow-up) of the same compound?
A: 862

Q: And the “pale complexion score 0, percent of patients” value (Follow-up)?
A: (61.79%)

Q: And the “pale complexion score 1, number of patients” value (Follow-up)?
A: 452

Q: And the “pale complexion score 1, percent of patients” value (Follow-up)?
A: (32.40%)

Q: And the “pale complexion score 2, number of patients” value (Follow-up)?
A: 75

Q: What about the “pale complexion score 2, percent of patients” value (Follow-up) of the same compound?
A: (5.38%)

Q: What about the “pale complexion score 3, number of patients” value (Follow-up) of the same compound?
A: 6

Q: And the “pale complexion score 3, percent of patients” value (Follow-up)?
A: (0.43%)

Q: And the “palpitation score 0, number of patients” value (Follow-up)?
A: 613

Q: And the “palpitation score 0, percent of patients” value (Follow-up)?
A: (43.94%)

Q: And the “palpitation score 2, number of patients” value (Follow-up)?
A: 683

Q: What about the “palpitation score 2, percent of patients” value (Follow-up) of the same compound?
A: (48.96%)

Q: And the “palpitation score 4, number of patients” value (Follow-up)?
A: 94

Q: What about the “palpitation score 4, percent of patients” value (Follow-up) of the same compound?
A: (6.74%)

Q: What about the “palpitation score 6, number of patients” value (Follow-up) of the same compound?
A: 5

Q: And the “palpitation score 6, percent of patients” value (Follow-up)?
A: (0.36%)

Q: What about the “short breath score 0, % of patients” value (Follow-up) of the same compound?
A: (35.34%)

Q: What about the “short breath score 0, number of patients” value (Follow-up) of the same compound?
A: 493

Q: What about the “short breath score 2, % of patients” value (Follow-up) of the same compound?
A: (0.07%)

Q: And the “short breath score 2, number of patients” value (Follow-up)?
A: 1

Q: And the “short breath score 3, % of patients” value (Follow-up)?
A: (54.70%)

Q: What about the “short breath score 3, number of patients” value (Follow-up) of the same compound?
A: 763

Q: And the “short breath score 6, % of patients” value (Follow-up)?
A: (9.68%)

Q: And the “short breath score 6, number of patients” value (Follow-up)?
A: 135

Q: What about the “short breath score 9, % of patients” value (Follow-up) of the same compound?
A: (0.22%)

Q: And the “short breath score 9, number of patients” value (Follow-up)?
A: 3

Q: What about the “spontaneous perspiration score 0, number of patients” value (Follow-up) of the same compound?
A: 750

Q: What about the “spontaneous perspiration score 0, percent of patients” value (Follow-up) of the same compound?
A: (53.80%)

Q: What about the “spontaneous perspiration score 1, number of patients” value (Follow-up) of the same compound?
A: 578

Q: What about the “spontaneous perspiration score 1, percent of patients” value (Follow-up) of the same compound?
A: (41.46%)

Q: What about the “spontaneous perspiration score 2, number of patients” value (Follow-up) of the same compound?
A: 62

Q: And the “spontaneous perspiration score 2, percent of patients” value (Follow-up)?
A: (4.45%)

Q: And the “spontaneous perspiration score 3, number of patients” value (Follow-up)?
A: 4

Q: And the “spontaneous perspiration score 3, percent of patients” value (Follow-up)?
A: (0.29%)

Q: What about the “total score of TCM symptom, Max” value (Follow-up) of the same compound?
A: 32.00

Q: And the “total score of TCM symptom, Md” value (Follow-up)?
A: 7.00

Q: What about the “total score of TCM symptom, Mean” value (Follow-up) of the same compound?
A: 7.73

Q: And the “total score of TCM symptom, Min” value (Follow-up)?
A: 0.00

Q: And the “change of fatigue 0, % of patients” value (Follow-up-baseline)?
A: (42.99%)

Q: What about the “change of fatigue 0, number of patients” value (Follow-up-baseline) of the same compound?
A: 598

Q: What about the “change of fatigue 2, % of patients” value (Follow-up-baseline) of the same compound?
A: (37.60%)

Q: What about the “change of fatigue 2, number of patients” value (Follow-up-baseline) of the same compound?
A: 523

Q: What about the “change of fatigue 4, % of patients” value (Follow-up-baseline) of the same compound?
A: (11.00%)

Q: What about the “change of fatigue 4, number of patients” value (Follow-up-baseline) of the same compound?
A: 153

Q: And the “change of fatigue 6, % of patients” value (Follow-up-baseline)?
A: (2.01%)

Q: And the “change of fatigue 6, number of patients” value (Follow-up-baseline)?
A: 28

Q: What about the “change of fatigue −2, % of patients” value (Follow-up-baseline) of the same compound?
A: (6.18%)

Q: What about the “change of fatigue −2, number of patients” value (Follow-up-baseline) of the same compound?
A: 86

Q: And the “change of fatigue −4, % of patients” value (Follow-up-baseline)?
A: (0.22%)

Q: And the “change of fatigue −4, number of patients” value (Follow-up-baseline)?
A: 3

Q: What about the “change of pale complexion 0, number of patients” value (Follow-up-baseline) of the same compound?
A: 932

Q: What about the “change of pale complexion 0, percent of patients” value (Follow-up-baseline) of the same compound?
A: (67.29%)

Q: And the “change of pale complexion 1, number of patients” value (Follow-up-baseline)?
A: 414

Q: And the “change of pale complexion 1, percent of patients” value (Follow-up-baseline)?
A: (29.89%)

Q: And the “change of pale complexion −1, number of patients” value (Follow-up-baseline)?
A: 39

Q: And the “change of pale complexion −1, percent of patients” value (Follow-up-baseline)?
A: (2.82%)

Q: And the “change of palpitation 0, number of patients” value (Follow-up-baseline)?
A: 677

Q: What about the “change of palpitation 0, percent of patients” value (Follow-up-baseline) of the same compound?
A: (48.71%)

Q: What about the “change of palpitation 1, number of patients” value (Follow-up-baseline) of the same compound?
A: 516

Q: What about the “change of palpitation 1, percent of patients” value (Follow-up-baseline) of the same compound?
A: (37.12%)

Q: What about the “change of palpitation 2, number of patients” value (Follow-up-baseline) of the same compound?
A: 93

Q: What about the “change of palpitation 2, percent of patients” value (Follow-up-baseline) of the same compound?
A: (6.69%)

Q: And the “change of palpitation 3, number of patients” value (Follow-up-baseline)?
A: 14

Q: And the “change of palpitation 3, percent of patients” value (Follow-up-baseline)?
A: (1.01%)

Q: What about the “change of palpitation −1, number of patients” value (Follow-up-baseline) of the same compound?
A: 86

Q: And the “change of palpitation −1, percent of patients” value (Follow-up-baseline)?
A: (6.19%)

Q: And the “change of palpitation −2, number of patients” value (Follow-up-baseline)?
A: 3

Q: What about the “change of palpitation −2, percent of patients” value (Follow-up-baseline) of the same compound?
A: (0.22%)

Q: What about the “change of palpitation −3, number of patients” value (Follow-up-baseline) of the same compound?
A: 1

Q: And the “change of palpitation −3, percent of patients” value (Follow-up-baseline)?
A: (0.07%)

Q: And the “change of short breath 0, % of patients” value (Follow-up-baseline)?
A: (52.12%)

Q: And the “change of short breath 0, number of patients” value (Follow-up-baseline)?
A: 725

Q: And the “change of short breath 2, % of patients” value (Follow-up-baseline)?
A: (36.45%)

Q: And the “change of short breath 2, number of patients” value (Follow-up-baseline)?
A: 507

Q: And the “change of short breath 4, % of patients” value (Follow-up-baseline)?
A: (5.46%)

Q: What about the “change of short breath 4, number of patients” value (Follow-up-baseline) of the same compound?
A: 76

Q: What about the “change of short breath 6, % of patients” value (Follow-up-baseline) of the same compound?
A: (0.72%)

Q: And the “change of short breath 6, number of patients” value (Follow-up-baseline)?
A: 10

Q: What about the “change of short breath −2, % of patients” value (Follow-up-baseline) of the same compound?
A: (5.10%)

Q: What about the “change of short breath −2, number of patients” value (Follow-up-baseline) of the same compound?
A: 71

Q: What about the “change of short breath −4, % of patients” value (Follow-up-baseline) of the same compound?
A: (0.00%)

Q: What about the “change of short breath −4, number of patients” value (Follow-up-baseline) of the same compound?
A: 0

Q: And the “change of short breath −6, % of patients” value (Follow-up-baseline)?
A: (0.14%)

Q: What about the “change of short breath −6, number of patients” value (Follow-up-baseline) of the same compound?
A: 2

Q: And the “change of spontaneous perspiration 0, number of patients” value (Follow-up-baseline)?
A: 644

Q: And the “change of spontaneous perspiration 0, percent of patients” value (Follow-up-baseline)?
A: (46.33%)

Q: What about the “change of spontaneous perspiration 1, number of patients” value (Follow-up-baseline) of the same compound?
A: 451

Q: What about the “change of spontaneous perspiration 1, percent of patients” value (Follow-up-baseline) of the same compound?
A: (32.45%)

Q: What about the “change of spontaneous perspiration 2, number of patients” value (Follow-up-baseline) of the same compound?
A: 138

Q: And the “change of spontaneous perspiration 2, percent of patients” value (Follow-up-baseline)?
A: (9.93%)

Q: What about the “change of spontaneous perspiration 3, number of patients” value (Follow-up-baseline) of the same compound?
A: 31

Q: And the “change of spontaneous perspiration 3, percent of patients” value (Follow-up-baseline)?
A: (2.23%)

Q: And the “change of spontaneous perspiration −1, percent of patients” value (Follow-up-baseline)?
A: (8.35%)

Q: What about the “change of spontaneous perspiration −2, number of patients” value (Follow-up-baseline) of the same compound?
A: 8

Q: What about the “change of spontaneous perspiration −2, percent of patients” value (Follow-up-baseline) of the same compound?
A: (0.58%)

Q: And the “change of spontaneous perspiration −3, number of patients” value (Follow-up-baseline)?
A: 2

Q: And the “change of spontaneous perspiration −3, percent of patients” value (Follow-up-baseline)?
A: (0.14%)

Q: What about the “change of total score of TCM symptom, Max” value (Follow-up-baseline) of the same compound?
A: 27.00

Q: And the “change of total score of TCM symptom, Md” value (Follow-up-baseline)?
A: −5.00

Q: And the “change of total score of TCM symptom, Mean” value (Follow-up-baseline)?
A: −6.16

Q: What about the “change of total score of TCM symptom, Min” value (Follow-up-baseline) of the same compound?
A: −29.00
